Results on 3 compounds are retold here after US11572557B2, “Photoreversible acylation reagents” (The Board of Trustees of the Leland Stanford Junior …, priority 2018, dated 2023).

In data set [1] the test system is 34 nt hammerhead ribozyme RNA. The data set can be described thus: Hammerhead ribozyme cleavage of Cy5-labeled substrate (urea PAGE). The data set is classed as biochemical. The source says:
In this example, the ability of photocloaking to control the more complex function of a ribozyme RNA was examined. To form proper tertiary structure and initiate activity, RNA-cleaving ribozymes hybridize and bind metals (See Y Liu, T. J. Wilson, and D. M. J. Lilley Nat. Chem. Biol. 2017, 13, 508-13, the disclosure of which is herein incorporated by reference. Several examples of photocontrolled ribozymes have been reported previously (See S. G. Chaulk and A. M. MacMillan Nucleic Acids Res. 1998, 26, 3173-78; A. Nierth, M. Singer and A Jaschke Chem. Commun. (Camb). 2010, 46, 7975-77; D. D. Young and A. Dieters Bioorganic Med. Chem. Lett. 2006, 16, 2658-61; and S. G. Chaulk and A. M. MacMillan, 2007 cited supra; the disclosures of which are herein incorporated by reference), with the goal of studying ribozyme structure and folding. All prior studies, however, have been performed with modifications incorporated into RNAs during solid-phase synthesis. Thus, PCA 1 was tested whether it could be used to block a ribozyme in a single post-synthetic step, and subsequently phototrigger its activity. A 34 nt hammerhead ribozyme RNA (FIG. 18A; Seq. ID No. 5) was cloaked under standard conditions at room temperature and isolated from excess reagent and DMSO by precipitation. The cloaked ribozyme (200 nM) was then incubated with Cy5-labeled substrate (500 nM) in 50 mM Tris pH=6.0, 10 mM MgCl2 for 1 hour. The reaction was stopped by the addition of 8 M urea, 100 mM EDTA solution and then analyzed by urea PAGE (FIGS. 18B and 18C). […] The initial rates of substrate conversion were determined before and after cloaking (FIGS. 18D and 18E). […] After cloaking, the rate dropped 370-fold to 3.010^−3 min^−1, showing strong blocking of ribozyme function. […] Thus, ribozyme function can be robustly controlled by a direct photocloaking strategy.

In a further data set the test system is 12 nt DNA. The data set can be described thus: Control incubation of analogous 12 nt DNA with PCA 1 (PAGE). The settings on record: analogous 12 nt DNA incubated with PCA 1.
In data set [2] the test system is 105 nt F30 Broccoli aptamer. In words: Broccoli aptamer folding / DFHBI fluorescence emission in vitro. It counts as biochemical. The settings on record: RNA cloaked 4 h with 100 mM PCA in water, no light. The protocol:
In this example, the ability of PCAs to control longer RNAs produced by transcription was tested. Photocontrolled aptamers have recently gained interest due to their potential for therapeutic and imaging applications, as exemplified by recent work by Langer and Kohane in which a 26nt nucleolin-binding aptamer for cancer targeting was reported (L. Li et al. Proc. Natl. Acad. Sci. 2014, 111, 17099-103, the disclosure of which is herein incorporated by reference; See also, M. C. Buff et al Nucleic Acids Res. 2009, 38, 2111-18; L. Qiu et al. J. Am. Chem. Soc. 2013, 135, 12952-55; A Heckel and G. Mayer J. Am. Chem. Soc. 2005, 12, 822-23; and A. Pinto et al. ACS Chem. Biol. 2012, 7, 360-66; the disclosure of which are herein incorporated by reference). […] Broccoli RNA folds into a compact tertiary structure, forming a binding site for the DFHBI dye, which results in a strong increase in fluorescence.
F-30 Broccoli DNA template (3 ng) (Table S1) was amplified by PCR (98° C. for 30 s; 30 times: 98° C. for 10 s, 61° C. for 30 s, 72° C. for 30 s; 72° C. for 5 min, 4° C. forever) using Phusion High-Fidelity PCR master Mix (NEB), and primers mix in 50 μL reaction, according to the NEB protocol. […] Fluorescent emission spectra were recorded on a Fluorolog 3-11 instrument (Jobin Yvon-SPEX), λex=450 nm at 25° C. […]

The subject of data set [3] is F30-2xd Broccoli aptamer RNA in HeLa cells. In words: Epifluorescence microscopy of HeLa cells transfected with 237 nt Broccoli aptamer RNA. It counts as cell-based, human. As to the method:
In this example, the capability to use this photocloaking strategy to switch on RNA function in cells was assessed by transfecting a cloaked Broccoli RNA construct into human cells and then exposing cells to light was explored. For these experiments, a larger 237 nt RNA (Seq. ID No. 7) construct encoding two dimeric Broccoli aptamers was prepared. This construct is known to be stable in the intracellular medium (G. S. Filonoy et al. Chem. Biol. 2015, 22 (5), 649-60, the disclosure of which is herein incorporated by reference). Accordingly, F30-2xdB_2 DNA (100 pmol; Seq. ID No. 8) was 5′ adenylated using Mth Ligase (100 pmol, NEB) according to NEB's protocol. Mini Elute columns, and PNI Buffer (Qiagen) were used to clean up double stranded DNA samples according to manufacturer's instructions. ssDNAs F30-2xdB_2 (40 pmol) and F30-2xdB_1 (20 pmol) were ligated according to NEB description, using Thermostable 5′ App DNA/RNA Ligase (40 pmol, NEB). Ligated DNA was purified on DNA Clean&Concentrator 5 columns (Zymo Research) using Zymo's protocol. F-30 2xd Broccoli ssDNA template (3 ng) was amplified by PCR (98° C. for 30 s; 30 times: 98° C. for 10 s, 60° C. for 30 s, 72° C. for 30 s; 72° C. for 5 min, 4° C. forever) using Phusion High-Fidelity PCR master Mix (NEB), and primers mix in 50 μL reaction, according to the NEB protocol. […]

A further data set concerns complementary DNA strand. The data set can be described thus: Thermal denaturation (melting curve) of RNA template 1 annealed to complementary DNA. Conditions: duplex with complementary DNA, phosphate buffer pH=7.2, 100 mM NaCl, 300 nM. The data set is classed as physicochemical. As to the method:
Hybridization of untreated, cloaked, and uncloaked RNA was examined. Initial experiments measured the effect of photocloaking on thermal stability of a duplex. Untreated and cloaked RNA template 1 (Seq. ID No. 2) were annealed to its complementary DNA strand in phosphate buffer pH=7.2, 100 mM NaCl at 300 nM by heating the sample to 95° C. for 2 min and then cooling to room temperature. Melting curves were obtained by monitoring the absorbance at 260 nm of the nucleic acid solution while increasing the temperature at a rate of 1° C./min. Curves were smoothed by adjacent averaging.

Data set [4] concerns complementary fluorogenic DNA (Q-STAR) probes. The data set can be described thus: Nucleic acid-templated fluorogenic Q-STAR reaction (hybridization). The data set is classed as biochemical. The protocol: To further test the effect of cloaking on hybridization, a nucleic acid-templated reaction was employed with complementary fluorogenic DNA (Q-STAR) probes (R. M. Franzini and E. T. Kool J. Am. Chem. Soc. 2009, 131, 16021-23; and W. A. Velema and E. T. Kool J. Am. Chem. Soc. 2017, 139, 5405-11; the disclosures of which are herein incorporated by reference). RNA template (untreated, cloaked or photo-uncloaked) was dissolved in 70 mM Tris-Borate buffer pH=7.0, 10 mM MgCl2 to a concentration of 200 nM. To this was added QSTAR probe (200 nM; Seq. ID No. 3) and TPP probe (400 nM; Seq. ID No. 4) and the fluorescence was monitored overtime at 25° C. on a Fluorolog 3-11 instrument (Jobin Yvon-SPEX). λex=497 nm and λem=519 nm. Plots were smoothed by adjacent averaging. […] After the cloaked RNA was exposed to light for up to an hour and subjected to the Q-STAR hybridization probes, a strong restoration of signal (82% of original) was observed (FIG. 17B), consistent with uncloaking at relatively high efficiency.

`COc1cc(COC(=O)n2ccnc2Cl)c([N+](=O)[O-])cc1OCCN(C)C` [PCA 1, 4-(2-(dimethylamino)ethoxy)-5-methoxy-2-nitrobenzyl 2-chloro-1H-imidazole-1-carboxylate]: in data set [1] (after cloaking with PCA 1), the “drop of rate vs mock-treated ribozyme” value amounted to 370 fold. Also, the “initial rate of substrate conversion” value in data set [1] (cloaked RNA exposed to light) worked out at 1.1 min⁻¹. Moreover, the “ribozyme function after uncloaking” value in data set [1] (cloaked with PCA 1, after 365 nm light exposure) was “almost completely restored”. For the same compound, in data set [1] (ribozyme cloaked with PCA 1, 200 nM, substrate 500 nM, 1 hour), the “ribozyme activity (substrate cleavage)” value is “almost complete abrogation of activity”. In addition, in the data set on 12 nt DNA, the “reaction with DNA” value was below 5%. The “Broccoli RNA fluorescence with DFHBI” value in data set [2] is recorded as “strong suppression of fluorescence”.

For `COc1cc(C(C)OC(=O)n2ccnc2Cl)c([N+](=O)[O-])cc1OCCN(C)C` (stereo not drawn) [PCA 2, 1-(4-(2-(dimethylamino)ethoxy)-5-methoxy-2-nitrophenyl)ethyl 2-chloro-1H-imidazole-1-carboxylate], the “fluorescence signal in cells” value in data set [3] (237 nt RNA cloaked with PCA 2, HeLa cells, subsequent light exposure (30 minutes)) is on record as “emergence of a visible green fluorescence signal”; in data set [3] (237 nt RNA cloaked with PCA 2, transfected in HeLa cells, no light) it was “no measurable signal above background”. Also, the “Broccoli RNA fluorescence with DFHBI” value in data set [2] was “very dim fluorescence”.

Take “cloaked RNA template 1: RNA template 1 (Seq. ID No. 2, 5′ GCU CCC CAG CUU UCG C) acylated at 2′-OH with photocloaking groups (GCUCCCCAGCUUUCGC; RNA, backbone not given here; 2'-OH acylated with photocloaking groups, further chemistry not fully specified)”: in the data set on complementary DNA strand, the “difference in melting temperature vs untreated RNA strand” value came to 10 °C. Also, the restoration of signal in data set [4] (cloaked RNA exposed to light for up to an hour) is listed as 82 % of original. Besides, the “fluorogenic templated reaction signal” value in data set [4] (cloaked RNA template 200 nM, no light, 25° C.) is listed as 9 % of untreated RNA.
